In paper PMC6199744, “Development of Chemical Proteomics for the Folateome and Analysis of the Kinetoplastid Folateome” (ACS Infectious Diseases, 2018):
Like-named read-outs stand apart in the source and are kept apart here.

Tested on: T. brucei lysate proteins
Format: binding, Trypanosoma brucei

Compound: CCCCCCOc1ccc(Cc2cnc(N)nc2N)cc1 [compound 1]
- fold change (relative to vehicle control = 1, protein TB09.160.3270 ATP-DEPENDENT DEAD BOX HELICASE, PUTATIVE): 0.99
- fold change (relative to vehicle control = 1, protein TB09.160.4250 TR[…]): 0.87
- fold change (relative to vehicle control = 1, protein TB09.211.3540 GLYCEROL KINASE, GLYCOSOMAL): 0.92
- fold change (relative to vehicle control = 1, protein TB11.01.0450 PROTEIN PHOSPHATASE 1, PUTATIVE): 0.96
- fold change (relative to vehicle control = 1, protein TB11.01.1270 NUCLEIC ACID BINDING PROTEIN, PUTATIVE): 0.97
- fold change (relative to vehicle control = 1, protein TB11.01.1290 14-3-3-I PROTEIN): 0.77
- fold change (relative to vehicle control = 1, protein TB11.02.1135 DYNEIN LIGHT CHAIN, PUTATIVE): 0.88
- fold change (relative to vehicle control = 1, protein TB11.02.4700 14-3-3 PROTEIN): 0.96
- fold change (relative to vehicle control = 1, protein TB11.03.0815 DYNEIN LIGHT CHAIN): 0.76
- fold change (relative to vehicle control = 1, protein TB11.50.0007 DYNEIN LIGHT CHAIN LC8, PUTATIVE): 0.99
- fold change (relative to vehicle control = 1, protein TB427TMP.01.1400 GLYCYL-TRNA SYNTHETASE, PUTATIVE): 0.88
- fold change (relative to vehicle control = 1, protein TB427TMP.01.1830 HY[…], CONSERVED): 0.86
- fold change (relative to vehicle control = 1, protein TB427TMP.01.3370 […] PROTEIN, PUTATIVE): 0.94
- fold change (relative to vehicle control = 1, protein TB427TMP.01.6880 CYTOSOLIC COAT PROTEIN, PUTATIVE): 0.88
- fold change (relative to vehicle control = 1, protein TB427TMP.01.7490 HY[…], CONSERVED): 0.95
- fold change (relative to vehicle control = 1, protein TB427TMP.01.7530 HY[…], CONSERVED): 0.92
- fold change (relative to vehicle control = 1, protein TB427TMP.02.0750 T-COMPLEX PROTEIN 1, ZETA SUBUNIT, PUTATIVE): 0.94
- fold change (relative to vehicle control = 1, protein TB427TMP.02.1120 ADENYL[…], PUTATIVE): 0.93
- fold change (relative to vehicle control = 1, protein TB427TMP.02.1460 HY[…], CONSERVED): 0.82
- fold change (relative to vehicle control = 1, protein TB427TMP.02.3120 MALIC ENZYME, PUTATIVE): 0.77
- fold change (relative to vehicle control = 1, protein TB427TMP.02.4550 HY[…], CONSERVED): 0.91
- fold change (relative to vehicle control = 1, protein TB427TMP.02.5450 GLUCOSE-REGULATED PROTEIN 78, PUTATIVE): 0.89
- fold change (relative to vehicle control = 1, protein TB427TMP.02.5660 HY[…], CONSERVED): 0.82
- fold change (relative to vehicle control = 1, protein TB427TMP.03.0090 RIBOKINASE, PUTATIVE): 0.87
- fold change (relative to vehicle control = 1, protein TB427TMP.03.0460 HY[…], CONSERVED): 0.85
- fold change (relative to vehicle control = 1, protein TB427TMP.160.4770 PROTEIN KINASE, PUTATIVE): 0.92
- fold change (relative to vehicle control = 1, protein TB427TMP.160.4910 FLAVOPROTEIN MONOOXYGENASE, PUTATIVE): 0.89
- fold change (relative to vehicle control = 1, protein TB427TMP.22.0004 HY[…], CONSERVED): 0.97
- fold change (relative to vehicle control = 1, protein TB427.01.3830 GLUCOSE-6-PHOSPHATE ISOMERASE, GLYCOSOMAL): 1
- fold change (relative to vehicle control = 1, protein TB427.01.4050 PROTEIN P[…] EF-HAND DOMAINS (PPEF)): 0.94
- fold change (relative to vehicle control = 1, protein TB427.02.1170 RETRO[…] SPOT (RHS) PROTEIN, PUTATIVE): 0.85
- fold change (relative to vehicle control = 1, protein TB427.02.6220 ADENOSINE TRANSPORTER 2, PUTATIVE): 0.95
- fold change (relative to vehicle control = 1, protein TB427.03.3160 POLY(A) POLYMERASE): 0.97
- fold change (relative to vehicle control = 1, protein TB427.03.3560 HY[…], CONSERVED): 0.92
- fold change (relative to vehicle control = 1, protein TB427.03.4190 ENDOSOMAL INTEGRAL MEMBRANE PROTEIN, PUTATIVE): 0.99
- fold change (relative to vehicle control = 1, protein TB427.03.5420 PROTEIN TRANSPORT PROTEIN SEC24): 0.8
- fold change (relative to vehicle control = 1, protein TB427.04.1510 PHOSPHOLIPID-TRA[…], PUTATIVE): 0.88
- fold change (relative to vehicle control = 1, protein TB427.05.1320 HY[…], CONSERVED): 0.97
- fold change (relative to vehicle control = 1, protein TB427.05.300 THYMINE-7-HYDROXYLASE, PUTATIVE): 0.92
- fold change (relative to vehicle control = 1, protein TB427.05.3800 GLUTAMINE HYDROLYSING (NOT AMMONIA-DEPENDENT) […] PHOSPHATE SYNTHASE, PUTATIVE): 0.88
- fold change (relative to vehicle control = 1, protein TB427.05.4530 FATTY ACID ELONGASE, PUTATIVE): 0.75
- fold change (relative to vehicle control = 1, protein TB427.06.2550 RNA-BINDING PROTEIN, PUTATIVE): 0.89
- fold change (relative to vehicle control = 1, protein TB427.06.3650 ADP-RI[…], PUTATIVE): 0.84
- fold change (relative to vehicle control = 1, protein TB427.06.3860 HY[…], CONSERVED): 0.55
- fold change (relative to vehicle control = 1, protein TB427.07.2340 40S RIBOSOMAL PROTEIN S15, PUTATIVE): 0.82
- fold change (relative to vehicle control = 1, protein TB427.07.2570 MRNA […], PUTATIVE): 0.69
- fold change (relative to vehicle control = 1, protein TB427.07.7500 THYMINE-7-HYDROXYLASE, PUTATIVE): 0.94
- fold change (relative to vehicle control = 1, protein TB427.08.3150 T-COMPLEX PROTEIN 1, GAMMA SUBUNIT, PUTATIVE): 0.9
- fold change (relative to vehicle control = 1, protein TB427.08.3490 HY[…], CONSERVED): 0.94
- fold change (relative to vehicle control = 1, protein TB427.08.5460 FLAGELLAR CALCIUM-BINDING PROTEIN): 0.99
- fold change (relative to vehicle control = 1, protein TB427.08.6110 HY[…], CONSERVED): 0.71
- fold change (relative to vehicle control = 1, protein TB427.10.11930 NAD OR NADP DEPENDENT OXIDOREDUCTASE, PUTATIVE): 0.63
- fold change (relative to vehicle control = 1, protein TB427.10.12510 P-TYPE H+-ATPASE, PUTATIVE): 0.99
- fold change (relative to vehicle control = 1, protein TB427.10.13110 DYNEIN LIGHT CHAIN, PUTATIVE): 0.86
- fold change (relative to vehicle control = 1, protein TB427.10.13880 HY[…], CONSERVED): 0.88
- fold change (relative to vehicle control = 1, protein TB427.10.14140 PYRUVATE KINASE 1): 0.98
- fold change (relative to vehicle control = 1, protein TB427.10.14910 SA[…] GLYCOPROTEIN, PUTATIVE): 1
- fold change (relative to vehicle control = 1, protein TB427.10.15180 […] PROTEIN, PUTATIVE): 0.82
- fold change (relative to vehicle control = 1, protein TB427.10.2350 PYRUVATE DEH[…] E3 BINDING PROTEIN, PUTATIVE): 0.7
- fold change (relative to vehicle control = 1, protein TB427.10.4940 NUCLEAR DBF2-RELATED KINASE): 0.93
- fold change (relative to vehicle control = 1, protein TB427.10.7630 HY[…], CONSERVED): 0.98
- fold change (relative to vehicle control = 1, protein TB427.10.9800 60S RIBOSOMAL PROTEIN L22): 1
- fold change (relative to vehicle control = 1, protein TB927.10.12840 MIT[…] PROTEIN, PUTATIVE): 0.8
- fold change (relative to vehicle control = 1, protein TB927.10.13780 GLYCOGEN SYNTHASE KINASE 3): 0.99
- fold change (relative to vehicle control = 1, protein TB927.10.14980 INTR[…] PROTEIN IFT52, PUTATIVE): 0.96
- fold change (relative to vehicle control = 1, protein TB927.1.2330 BETA TUBULIN): 0.9
- fold change (relative to vehicle control = 1, protein TB927.1.2400 ALPHA TUBULIN): 0.89
- fold change (relative to vehicle control = 1, protein TB927.10.3280 60S RIBOSOMAL PROTEINS L38, PUTATIVE): 0.97
- fold change (relative to vehicle control = 1, protein TB927.10.4180 TFIIF-[…] PHOSPHATASE, PUTATIVE): 0.98
- fold change (relative to vehicle control = 1, protein TB927.10.5330 40S RIBOSOMAL PROTEIN S18, PUTATIVE): 1.1
- fold change (relative to vehicle control = 1, protein TB927.10.5500 HY[…], CONSERVED): 0.92
- fold change (relative to vehicle control = 1, protein TB927.10.6670 DYNEIN LIGHT CHAIN, PUTATIVE): 0.95
- fold change (relative to vehicle control = 1, protein TB927.2.2440 […]-ATPASE SUBUNIT 6): 0.96
- fold change (relative to vehicle control = 1, protein TB927.2.2510 HY[…], CONSERVED): 0.96
- fold change (relative to vehicle control = 1, protein TB927.2.3800 MRNA […], PUTATIVE): 0.87
- fold change (relative to vehicle control = 1, protein TB927.3.1120 GTP-BINDING NUCLEAR PROTEIN RTB2, PUTATIVE): 0.91
- fold change (relative to vehicle control = 1, protein TB927.3.3490 HIGH MOBILITY GROUP PROTEIN, PUTATIVE): 0.88
- fold change (relative to vehicle control = 1, protein TB927.4.4650 […] SYNTHASE, PUTATIVE): 0.79
- fold change (relative to vehicle control = 1, protein TB927.4.5310 SERINE/THREONINE-PROTEIN KINASE A, PUTATIVE): 0.99
- fold change (relative to vehicle control = 1, protein TB927.5.1930 HY[…], CONSERVED): 0.78
- fold change (relative to vehicle control = 1, protein TB927.6.2200 HY[…], CONSERVED): 0.92
- fold change (relative to vehicle control = 1, protein TB927.6.4140 PAR[…] COMPONENT, PUTATIVE): 0.9
- fold change (relative to vehicle control = 1, protein TB927.7.2500 […] SUBUNIT 1): 0.95
- fold change (relative to vehicle control = 1, protein TB927.7.2700 NADH-CYTOCHROME B5 REDUCTASE, PUTATIVE): 0.76
- fold change (relative to vehicle control = 1, protein TB927.7.4480 ADENOSINE 5'-[…], PUTATIVE): 0.83
- fold change (relative to vehicle control = 1, protein TB927.7.4500 HY[…], CONSERVED): 0.97
- fold change (relative to vehicle control = 1, protein TB927.8.1510 ATP-DEPENDENT DEAD/H RNA HELICASE, PUTATIVE): 0.94
- fold change (vs vehicle control, protein TB09.160.3710 PRO[…] NUCLEAR ANTIGEN (PCNA), PUTATIVE): 0.96
- fold change (vs vehicle control, protein TB11.01.4370 HY[…], CONSERVED): 0.98
- fold change (vs vehicle control, protein TB427TMP.01.5690 DRBD4): 0.94
- fold change (vs vehicle control, protein TB427.01.1670 HY[…], CONSERVED): 0.91
- fold change (vs vehicle control, protein TB427.04.760 GAMMA-ADAPTIN 1, PUTATIVE): 0.93
- fold change (vs vehicle control, protein TB427.07.1420 HY[…], CONSERVED): 0.92
- fold change (vs vehicle control, protein TB427.10.11760 PUMILIO/PUF RNA BINDING PROTEIN 6): 0.96
- fold change (vs vehicle control, protein TB427.10.2290 CHAPERONE PROTEIN DNAJ, PUTATIVE): 0.8
- fold change (vs vehicle control, protein TB927.5.1630 HY[…], CONSERVED): 0.91
